{"source": "ChEMBL document CHEMBL1201862", "about": "“PubChem BioAssay data set” (2004)", "key": {"[1]": {"biological_target": "Eukaryotic translation initiation factor 4E (Mus musculus, UniProt P63073)", "sequence (P63073 whole entry)": "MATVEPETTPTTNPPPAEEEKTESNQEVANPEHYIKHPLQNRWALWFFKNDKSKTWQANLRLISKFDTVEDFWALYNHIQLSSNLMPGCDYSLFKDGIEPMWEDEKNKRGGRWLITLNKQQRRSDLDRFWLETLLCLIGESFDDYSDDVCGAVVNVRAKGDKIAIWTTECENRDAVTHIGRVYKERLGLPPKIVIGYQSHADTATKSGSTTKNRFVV", "experiment": "eIF4E–eIF4G protein interaction inhibitors, dose response, biochemical, TR-FRET (AID 855);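 note: potency for disrupting eIF4E binding to eIF4GI seen as loss of FRET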", "type": "functional"}, "[2]": {"experiment": "CAL PDZ domain peptide-binding inhibitors, dose response, biochemical, fluorescence polarization, untagged CAL PDZ, cherry-pick (AID 602267)", "type": "functional"}, "Caspase-6": {"biological_target": "T1, Caspase-6 (Homo sapiens, UniProt P55212)", "T1 sequence (P55212 whole entry)": "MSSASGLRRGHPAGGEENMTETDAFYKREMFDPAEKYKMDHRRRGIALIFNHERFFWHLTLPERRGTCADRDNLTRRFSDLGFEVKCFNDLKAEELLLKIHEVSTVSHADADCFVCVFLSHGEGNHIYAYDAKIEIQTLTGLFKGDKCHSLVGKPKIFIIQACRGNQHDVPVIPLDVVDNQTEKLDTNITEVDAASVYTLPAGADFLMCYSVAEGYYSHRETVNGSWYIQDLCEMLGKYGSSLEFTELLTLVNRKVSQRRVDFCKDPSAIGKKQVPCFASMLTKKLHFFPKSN", "experiment": "human caspase-6 inhibitors, dose response, biochemical, VEID-R110 fluorescence, cherry-pick (AID 720632)"}, "[3]": {"biological_target": "T2, Apoptotic protease-activating factor 1 (Homo sapiens, UniProt O14727)", "T2 sequence (O14727 whole entry)": "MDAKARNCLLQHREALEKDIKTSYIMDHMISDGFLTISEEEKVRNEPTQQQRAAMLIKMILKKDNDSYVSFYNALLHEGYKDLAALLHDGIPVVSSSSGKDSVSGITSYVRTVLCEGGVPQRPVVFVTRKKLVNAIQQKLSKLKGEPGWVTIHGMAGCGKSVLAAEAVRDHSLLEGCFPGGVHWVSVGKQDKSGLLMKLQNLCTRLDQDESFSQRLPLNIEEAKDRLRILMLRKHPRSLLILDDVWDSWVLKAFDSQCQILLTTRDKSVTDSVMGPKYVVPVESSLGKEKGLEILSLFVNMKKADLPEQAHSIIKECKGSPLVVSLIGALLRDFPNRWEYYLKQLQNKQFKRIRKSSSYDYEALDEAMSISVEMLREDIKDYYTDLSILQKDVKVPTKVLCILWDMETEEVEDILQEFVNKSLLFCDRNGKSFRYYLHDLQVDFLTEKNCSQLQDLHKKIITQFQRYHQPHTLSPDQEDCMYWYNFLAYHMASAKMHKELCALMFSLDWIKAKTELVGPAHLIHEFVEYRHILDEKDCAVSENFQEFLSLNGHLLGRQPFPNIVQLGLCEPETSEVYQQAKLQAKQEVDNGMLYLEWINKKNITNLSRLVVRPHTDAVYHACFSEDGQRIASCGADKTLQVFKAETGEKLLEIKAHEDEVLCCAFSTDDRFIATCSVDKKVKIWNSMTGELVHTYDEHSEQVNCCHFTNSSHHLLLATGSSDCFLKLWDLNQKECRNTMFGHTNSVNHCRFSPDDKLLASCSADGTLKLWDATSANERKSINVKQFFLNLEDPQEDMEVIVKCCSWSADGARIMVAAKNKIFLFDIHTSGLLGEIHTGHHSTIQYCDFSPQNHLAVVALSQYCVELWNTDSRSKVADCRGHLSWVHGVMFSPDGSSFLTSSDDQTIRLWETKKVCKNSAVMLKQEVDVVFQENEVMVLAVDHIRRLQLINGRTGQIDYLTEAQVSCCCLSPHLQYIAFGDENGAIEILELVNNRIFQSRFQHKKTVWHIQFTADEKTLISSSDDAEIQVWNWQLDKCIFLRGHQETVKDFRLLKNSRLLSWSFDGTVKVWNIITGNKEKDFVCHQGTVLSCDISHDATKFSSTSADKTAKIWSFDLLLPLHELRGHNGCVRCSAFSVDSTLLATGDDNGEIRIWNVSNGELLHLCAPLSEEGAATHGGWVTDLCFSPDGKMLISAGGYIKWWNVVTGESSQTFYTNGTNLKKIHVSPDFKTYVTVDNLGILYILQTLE", "type": "functional"}, "[4]": {"biological_target": "T3, C-C chemokine receptor type 6 (Homo sapiens, UniProt P51684)", "T3 sequence (P51684 whole entry)": "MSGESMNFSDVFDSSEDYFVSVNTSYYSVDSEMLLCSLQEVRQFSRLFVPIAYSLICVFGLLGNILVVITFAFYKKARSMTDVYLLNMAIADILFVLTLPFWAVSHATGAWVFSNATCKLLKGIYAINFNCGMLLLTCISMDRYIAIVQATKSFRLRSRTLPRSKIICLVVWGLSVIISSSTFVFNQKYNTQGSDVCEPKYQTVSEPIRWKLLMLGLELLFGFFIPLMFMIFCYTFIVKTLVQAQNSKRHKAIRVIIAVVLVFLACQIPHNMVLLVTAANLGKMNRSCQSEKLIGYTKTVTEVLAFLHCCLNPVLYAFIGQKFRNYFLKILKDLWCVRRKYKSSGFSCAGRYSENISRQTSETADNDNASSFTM", "experiment": "CCR6 receptor antagonists, dose response, cell-based, luminescent beta-arrestin readout (AID 504728)", "type": "functional"}, "Genome polyprotein": {"biological_target": "Genome polyprotein (dengue virus type 2, UniProt P29990)", "sequence (P29990 2492-3391 limits assumed)": "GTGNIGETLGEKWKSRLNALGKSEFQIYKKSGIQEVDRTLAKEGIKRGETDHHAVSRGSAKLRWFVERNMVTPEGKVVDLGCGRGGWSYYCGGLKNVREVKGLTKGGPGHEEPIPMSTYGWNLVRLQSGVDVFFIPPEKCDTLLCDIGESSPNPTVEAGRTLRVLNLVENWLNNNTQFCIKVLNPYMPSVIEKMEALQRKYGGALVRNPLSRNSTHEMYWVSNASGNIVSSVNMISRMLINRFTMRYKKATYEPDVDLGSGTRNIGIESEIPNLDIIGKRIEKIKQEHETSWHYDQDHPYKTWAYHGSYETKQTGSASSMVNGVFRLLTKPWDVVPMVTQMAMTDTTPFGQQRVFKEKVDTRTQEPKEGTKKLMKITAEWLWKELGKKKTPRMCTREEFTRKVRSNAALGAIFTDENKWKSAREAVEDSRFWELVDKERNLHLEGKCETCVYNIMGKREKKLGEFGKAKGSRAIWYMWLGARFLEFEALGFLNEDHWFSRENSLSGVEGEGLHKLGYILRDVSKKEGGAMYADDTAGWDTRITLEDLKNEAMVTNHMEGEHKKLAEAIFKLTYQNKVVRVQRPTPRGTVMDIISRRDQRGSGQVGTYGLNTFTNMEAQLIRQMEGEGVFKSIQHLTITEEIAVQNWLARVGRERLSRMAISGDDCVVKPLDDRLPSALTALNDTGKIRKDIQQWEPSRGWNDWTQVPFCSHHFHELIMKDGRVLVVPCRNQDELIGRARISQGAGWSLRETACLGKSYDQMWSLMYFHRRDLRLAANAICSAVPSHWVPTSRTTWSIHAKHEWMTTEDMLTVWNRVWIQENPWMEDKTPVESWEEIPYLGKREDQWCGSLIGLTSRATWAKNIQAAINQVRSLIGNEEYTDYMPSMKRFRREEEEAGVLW", "experiment": "Dengue-2 NS5 methyltransferase inhibitors, primary screen, biochemical, confirmation dose response (AID 588689)", "type": "functional"}}, "note": "Activity calls are given as the source filed them.", "data": [{"compound": "O=c1c2ccccc2nc(/C=C/c2cccnc2)n1Cc1ccccc1", "values": [{"measurement": "IC50", "setting": "[1]", "result": "5.77 µM (active)"}, {"measurement": "AC50", "setting": "[2]", "result": "91.1 µM (active)"}, {"measurement": "AC50", "setting": "Caspase-6", "result": "11.8 µM (active)"}]}, {"compound": "COC(=O)c1ccccc1NC1=C/C(=N\\S(=O)(=O)c2ccc(C(=O)O)cc2)c2ccccc2C1=O", "values": [{"measurement": "IC50", "setting": "[3]", "result": "7.19 µM (active)"}, {"measurement": "IC50", "setting": "[4]", "result": "> 66.6 µM (inactive)"}]}, {"compound": "NC(=O)C1CCN(C2=C(Cl)C(=O)c3ccccc3C2=O)CC1", "values": [{"measurement": "IC50", "setting": "Genome polyprotein", "result": "26 µM (active)"}]}]}
